Test results reported in patent US11434221B2, “Pyrazine-4-carbamate or -urea derivatives as herbicides” (Syngenta Participations AG, priority 2017, dated 2022).

Legend:
Assay type in all cases: in vivo
Parameters in all cases: key: 5=total damage to plant; 0=no damage to plant
[1] = test system: Echinochloa crus-galli (ECHCG); assay: Post-emergence herbicidal activity, glasshouse pot test; conditions: sprayed after 8 days cultivation, evaluated after 13 days
Method: (§1) Seeds of a variety of test species were sown in standard soil in pots: Triticum aestivium (TRZAW), Avena fatua (AVEFA), Alopecurus myosuroides (ALOMY), Echinochloa crus-galli (ECHCG), Lolium perenne (LOLPE), and Setaria faberi (SETFA). After 8 days cultivation (post-emergence) under controlled conditions in a glasshouse (at 24/16° C., day/night; 14 hours light; 65% humidity), the plants were sprayed with an aqueous spray solution derived from the formulation of the technical active ingredient in acetone/water (50:50) solution containing 0.5% Tween 20 (polyoxyethelyene sorbitan monolaurate, CAS RN 9005-64-5). The test plants were then grown in a glasshouse under controlled conditions (at 24/16° C., day/night; 14 hours light; 65% humidity) and watered twice daily. After 13 days, the test was evaluated (5=total damage to plant; 0=no damage to plant).

Setaria faberi (SETFA) [2] = assay: as above; conditions: sprayed after 8 days cultivation, evaluated after 13 days
Method: as §1

[3] = test system: Alopecurus myosuroides (ALOMY); assay: as above; conditions: sprayed after 8 days cultivation, evaluated after 13 days
Method: as §1

Avena fatua (AVEFA) [4] = assay: as above; conditions: sprayed after 8 days cultivation, evaluated after 13 days
Method: as §1

Lolium perenne (LOLPE) [5] = assay: as above; conditions: sprayed after 8 days cultivation, evaluated after 13 days
Method: as §1

[6] = test system: Triticum aestivium (TRZAW); assay: as above; conditions: sprayed after 8 days cultivation, evaluated after 13 days
Method: as §1

[7] = test system: Echinochloa crus-galli (ECHCG); assay: Pre-emergence herbicidal activity, glasshouse pot test; conditions: sprayed one day after sowing, evaluated after 13 days
Method: as §1, with “After” for “After 8 days”, “for one day (pre-emergence)” for “(post-emergence)”

Setaria faberi (SETFA) [8] = assay: as above; conditions: sprayed one day after sowing, evaluated after 13 days
Method: as §1, with “After” for “After 8 days”, “for one day (pre-emergence)” for “(post-emergence)”

[9] = test system: Alopecurus myosuroides (ALOMY); assay: as above; conditions: sprayed one day after sowing, evaluated after 13 days
Method: as §1, with “After” for “After 8 days”, “for one day (pre-emergence)” for “(post-emergence)”

Avena fatua (AVEFA) [10] = assay: as above; conditions: sprayed one day after sowing, evaluated after 13 days
Method: as §1, with “After” for “After 8 days”, “for one day (pre-emergence)” for “(post-emergence)”

Lolium perenne (LOLPE) [11] = assay: as above; conditions: sprayed one day after sowing, evaluated after 13 days
Method: as §1, with “After” for “After 8 days”, “for one day (pre-emergence)” for “(post-emergence)”

[12] = test system: Triticum aestivium (TRZAW); assay: as above; conditions: sprayed one day after sowing, evaluated after 13 days
Method: as §1, with “After” for “After 8 days”, “for one day (pre-emergence)” for “(post-emergence)”

Row | Structure (SMILES) | Control of weed species after post-emergence application, ECHCG (damage score 0-5) ([1]; Rate 1000 g/ha) | Control of weed species after post-emergence application, SETFA (damage score 0-5) (Setaria faberi (SETFA) [2]; Rate 1000 g/ha) | Control of weed species after post-emergence application, ALOMY (damage score 0-5) ([3]; Rate 1000 g/ha) | Control of weed species after post-emergence application, AVEFA (damage score 0-5) (Avena fatua (AVEFA) [4]; Rate 1000 g/ha) | Control of weed species after post-emergence application, LOLPE (damage score 0-5) (Lolium perenne (LOLPE) [5]; Rate 1000 g/ha) | Control of weed species after post-emergence application, TRAZW (damage score 0-5) ([6]; Rate 1000 g/ha) | Control of weed species after pre-emergence application, ECHCG (damage score 0-5) ([7]; Rate 1000 g/ha) | Control of weed species after pre-emergence application, SETFA (damage score 0-5) (Setaria faberi (SETFA) [8]; Rate 1000 g/ha) | Control of weed species after pre-emergence application, ALOMY (damage score 0-5) ([9]; Rate 1000 g/ha) | Control of weed species after pre-emergence application, AVEFA (damage score 0-5) (Avena fatua (AVEFA) [10]; Rate 1000 g/ha) | Control of weed species after pre-emergence application, LOLPE (damage score 0-5) (Lolium perenne (LOLPE) [11]; Rate 1000 g/ha) | Control of weed species after pre-emergence application, TRAZW (damage score 0-5) ([12]; Rate 1000 g/ha) | also measured
1 | CSc1nc(-c2cncc(F)c2)cnc1NC(=O)OC(C)(C)C [Compound H24] | 4 | 5 | 0 | 3 | 2 | 0 | 2 | 5 | 0 | 2 | 1 | 0 | –
2 | CSc1cncc(-c2cnc(NC(=O)OC(C)(C)C)c(SC)n2)c1 [Compound H25] | – | – | – | – | – | – | – | – | – | – | – | – | Control of weed species after post-emergence application, ECHCG (damage score 0-5) ([1]; Rate 250 g/ha): 1; Control of weed species after post-emergence application, SETFA (damage score 0-5) (Setaria faberi (SETFA) [2]; Rate 250 g/ha): 1; Control of weed species after post-emergence application, ALOMY (damage score 0-5) ([3]; Rate 250 g/ha): 0; Control of weed species after post-emergence application, AVEFA (damage score 0-5) (Avena fatua (AVEFA) [4]; Rate 250 g/ha): 1; Control of weed species after post-emergence application, LOLPE (damage score 0-5) (Lolium perenne (LOLPE) [5]; Rate 250 g/ha): 1; Control of weed species after post-emergence application, TRAZW (damage score 0-5) ([6]; Rate 250 g/ha): 0; Control of weed species after pre-emergence application, ECHCG (damage score 0-5) ([7]; Rate 250 g/ha): 0; Control of weed species after pre-emergence application, SETFA (damage score 0-5) (Setaria faberi (SETFA) [8]; Rate 250 g/ha): 0; Control of weed species after pre-emergence application, ALOMY (damage score 0-5) ([9]; Rate 250 g/ha): 0; Control of weed species after pre-emergence application, AVEFA (damage score 0-5) (Avena fatua (AVEFA) [10]; Rate 250 g/ha): 0; Control of weed species after pre-emergence application, LOLPE (damage score 0-5) (Lolium perenne (LOLPE) [11]; Rate 250 g/ha): 0; Control of weed species after pre-emergence application, TRAZW (damage score 0-5) ([12]; Rate 250 g/ha): 0
3 | COC(=O)c1nc(-c2cncc(F)c2)cnc1N(C(=O)OC(C)(C)C)C(=O)OC(C)(C)C [Compound H26] | 3 | 5 | 0 | 1 | 0 | 1 | 0 | 5 | 0 | 0 | 0 | 0 | –
4 | CC(C)(C)OC(=O)Nc1ncc(-c2cncc(F)c2)nc1C(F)F [Compound H28] | 5 | 5 | 0 | 4 | 3 | 0 | 2 | 4 | 3 | 2 | 0 | 0 | –
5 | C#Cc1nc(-c2cncc(F)c2)cnc1N(C(=O)OC(C)(C)C)C(=O)OC(C)(C)C [Compound H29] | 1 | 1 | 0 | 0 | 1 | 1 | 0 | 0 | 0 | 0 | 0 | 0 | –
